From patent publication US10106501B2, “Nuclear receptor modulators” (AbbVie Inc., priority 2015, dated 2018) come the findings set out here.

This assay deals with T1, chimeric human RORγ-Gal4 receptor (Homo sapiens, UniProt P51449).
T1 sequence (P51449 269-508 limits assumed): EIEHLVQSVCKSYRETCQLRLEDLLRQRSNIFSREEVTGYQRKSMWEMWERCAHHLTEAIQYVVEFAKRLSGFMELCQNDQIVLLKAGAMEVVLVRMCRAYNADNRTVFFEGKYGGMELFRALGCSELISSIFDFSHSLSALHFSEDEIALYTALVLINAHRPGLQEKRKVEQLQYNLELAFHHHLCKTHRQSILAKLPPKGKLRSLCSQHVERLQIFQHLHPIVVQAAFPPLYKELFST
As to the kind of experiment: transient transactivation assay (RORγ-Gal4 luciferase reporter). The assay is classed as cell-based. To be noted: Cos-7 cells transfected with RORγ-Gal4 and 5Gal4 pGL3 TK Luc reporter; overnight incubation; T0901317 at 10^-5 M as reference; read-out: IC50. (In general: In a reporter assay the amount or activity of a reporter protein is the signal.)
For the compound `Cc1cc(C(F)(F)F)nc2c1cc(Cc1c(Cl)ncc(C(=O)N3CCN(S(C)(=O)=O)CC3)c1Cl)n2C` [Example GE, (4,6-dichloro-5-((1,4-dimethyl-6-(trifluoromethyl)-1H-pyrrolo[2,3-b]pyridin-2-yl)methyl)pyridin-3-yl)(4-(methylsulfonyl)piperazin-1-yl)methanone], the IC50 (usually the concentration that inhibits the measured activity by half) fell in the range of 0.1 to 0.5 µM.
Next, `Cc1cc(C(N)=O)cc2c1nc(C(=O)c1c(Cl)ccc(C(=O)N3CCOCC3)c1Cl)n2C` [Example BT, 2-(2,6-dichloro-3-(morpholine-4-carbonyl)benzoyl)-1,4-dimethyl-1H-benzo[d]imidazole-6-carboxamide]: 1 to 10 µM; `Cn1c(Cc2c(Cl)ccc(C(=O)N3CCC(C(=O)O)CC3)c2Cl)cc2ccc(C(F)(F)F)cc21` [M, 1-(2,4-dichloro-3-((1-methyl-6-(trifluoromethyl)-1H-indol-2-yl)methyl)benzoyl)piperidine-4-carboxylic acid]: 0.1 to 0.5 µM; `Cc1cc(C(F)(F)F)cc2c1nc(Cc1c(Cl)ccc(C(=O)N3CCC(C(C)(C)CO)CC3)c1Cl)n2C` [BJ-10]: less than 0.1 µM.
The result for `Cn1c(C(=O)c2c(Cl)ccc(C(=O)N3CCOCC3)c2Cl)cc2ncc(C(F)(F)F)cc21` [CP, (2,4-dichloro-3-(1-methyl-6-(trifluoromethyl)-1H-pyrrolo[3,2-b]pyridine-2-carbonyl)phenyl)(morpholino)methanone] reads 1 to 10 µM; that for `Cc1cc(C(F)(F)F)cn2c(C)c(Cc3c(Cl)ccc(C(=O)N4CCC(C5COC5)CC4)c3Cl)nc12` [CT-8], less than 0.1 µM; that for `Cc1cc(C#N)cc2c1cc(Cc1c(Cl)ccc(C(=O)N3CCC(CO)C3)c1Cl)n2C` (centres unmarked) [AA-19], 0.1 to 0.5 µM.
The result for `O=C(O)CC1CCN(C(=O)c2ccc(Cl)c(Cn3ccc4cc(OC(F)(F)F)ccc43)c2Cl)CC1` [EI, 2-(1-(2,4-dichloro-3-((5-(trifluoromethoxy)-1H-indol-1-yl)methyl)benzoyl)piperidin-4-yl)acetic acid] reads less than 0.1 µM.
